These results are taken from ChEMBL document CHEMBL4177736, “Monoterpene indole alkaloid azine derivatives as MDR reversal agents” (Bioorg Med Chem, 2018).

Active and inactive are the calls of the source. The rule behind the calls is not given here. Bounds are passed on as bounds.

In one data set the target is T1, BCRP (ABCG2) (Homo sapiens, UniProt Q9UNQ0).
T1 sequence (Q9UNQ0 whole entry): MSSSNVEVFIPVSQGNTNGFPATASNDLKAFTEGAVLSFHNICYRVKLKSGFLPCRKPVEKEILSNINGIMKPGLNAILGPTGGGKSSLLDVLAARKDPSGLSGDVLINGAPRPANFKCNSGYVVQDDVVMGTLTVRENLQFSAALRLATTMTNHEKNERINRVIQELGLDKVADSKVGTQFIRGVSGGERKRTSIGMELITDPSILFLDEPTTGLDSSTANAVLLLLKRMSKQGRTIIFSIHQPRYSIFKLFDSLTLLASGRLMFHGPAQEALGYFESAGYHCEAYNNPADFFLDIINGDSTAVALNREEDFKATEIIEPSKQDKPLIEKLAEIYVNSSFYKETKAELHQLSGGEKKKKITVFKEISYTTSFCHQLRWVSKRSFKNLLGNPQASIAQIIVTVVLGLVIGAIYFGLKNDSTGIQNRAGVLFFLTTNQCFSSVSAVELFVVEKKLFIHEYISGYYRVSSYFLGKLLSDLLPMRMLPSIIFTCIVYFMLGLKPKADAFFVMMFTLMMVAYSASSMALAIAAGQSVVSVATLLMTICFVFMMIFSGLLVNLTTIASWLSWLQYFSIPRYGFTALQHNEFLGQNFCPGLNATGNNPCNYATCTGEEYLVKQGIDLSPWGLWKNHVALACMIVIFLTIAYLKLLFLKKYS
As to the kind of experiment: Inhibition of BCRP (unknown origin) expressed in HEK293 cells assessed as reduction in mitoxantrone efflux at 20 uM incubated for 30 mins by flow cytometric analysis relative to control. The format is cell-based. As to conditions: HEK293 cells expressing BCRP, probe mitoxantrone.

The test system of data set [1] is BHK-21. Put plainly: Cytotoxicity against wild type BHK21 cells assessed as reduction in cell viability at 20 uM after 72 hrs by MTT assay. The format is cell-based, Mesocricetus auratus. As to conditions: hamster, bhk-21, 72 h.
Data set [2] concerns NIH3T3. As to the kind of experiment: Cytotoxicity against MDR1-expressing mouse NIH/3T3 cells assessed as growth inhibition at 20 uM after 72 hrs by MTT assay. The format is functional, cell-based. (Tetrazolium dyes change colour on reduction, which living cells bring about.)
The next data set concerns the target MRP1 (Homo sapiens, UniProt P33527). Put plainly: Inhibition of MRP1 (unknown origin) expressed in HEK293FlpIN cells assessed as reduction in calcein-AM efflux at 20 uM incubated for 30 mins by flow cytometric analysis relative to control. It counts as cell-based. To be noted: HEK293FlpIN cells expressing MRP1, probe calcein-AM.
Data set [3] can be described thus: Inhibition of P-gp (unknown origin) expressed in mouse NIH/3T3 cells assessed as reduction in rhodamine 123 efflux at 20 uM incubated for 30 mins by flow cytometric analysis relative to control. It counts as cell-based. As to conditions: Homo sapiens. Background: A flow cytometer gives signals particle by particle.
The subject of data set [4] is NIH3T3. As to the kind of experiment: Cytotoxicity against mouse NIH/3T3 cells assessed as reduction in cell viability at 20 uM after 72 hrs by MTT assay. The format is cell-based. To be noted: nih3t3, 72 h.
The test system of data set [5] is BHK-21. Put plainly: Cytotoxicity against MRP1-expressing BHK21 cells assessed as growth inhibition at 20 uM after 72 hrs by MTT assay. It counts as functional. As to conditions: Mesocricetus auratus; for inhibition of growth at 20 µM: BHK-21, 72 h, read-out: GI.
The target of data set [6] is T2, Multidrug resistance-associated protein 1 (Homo sapiens, UniProt P33527). As to the kind of experiment: Inhibition of MRP1 (unknown origin) expressed in BHK21 cells assessed as GSH efflux at 20 uM incubated for 3 hrs measured every 30 secs for 2 mins by GSH reductase enzyme based assay (reference value: 100%). The format is cell-based. To be noted: 3 h, 20 µM.
T2 sequence (P33527 whole entry): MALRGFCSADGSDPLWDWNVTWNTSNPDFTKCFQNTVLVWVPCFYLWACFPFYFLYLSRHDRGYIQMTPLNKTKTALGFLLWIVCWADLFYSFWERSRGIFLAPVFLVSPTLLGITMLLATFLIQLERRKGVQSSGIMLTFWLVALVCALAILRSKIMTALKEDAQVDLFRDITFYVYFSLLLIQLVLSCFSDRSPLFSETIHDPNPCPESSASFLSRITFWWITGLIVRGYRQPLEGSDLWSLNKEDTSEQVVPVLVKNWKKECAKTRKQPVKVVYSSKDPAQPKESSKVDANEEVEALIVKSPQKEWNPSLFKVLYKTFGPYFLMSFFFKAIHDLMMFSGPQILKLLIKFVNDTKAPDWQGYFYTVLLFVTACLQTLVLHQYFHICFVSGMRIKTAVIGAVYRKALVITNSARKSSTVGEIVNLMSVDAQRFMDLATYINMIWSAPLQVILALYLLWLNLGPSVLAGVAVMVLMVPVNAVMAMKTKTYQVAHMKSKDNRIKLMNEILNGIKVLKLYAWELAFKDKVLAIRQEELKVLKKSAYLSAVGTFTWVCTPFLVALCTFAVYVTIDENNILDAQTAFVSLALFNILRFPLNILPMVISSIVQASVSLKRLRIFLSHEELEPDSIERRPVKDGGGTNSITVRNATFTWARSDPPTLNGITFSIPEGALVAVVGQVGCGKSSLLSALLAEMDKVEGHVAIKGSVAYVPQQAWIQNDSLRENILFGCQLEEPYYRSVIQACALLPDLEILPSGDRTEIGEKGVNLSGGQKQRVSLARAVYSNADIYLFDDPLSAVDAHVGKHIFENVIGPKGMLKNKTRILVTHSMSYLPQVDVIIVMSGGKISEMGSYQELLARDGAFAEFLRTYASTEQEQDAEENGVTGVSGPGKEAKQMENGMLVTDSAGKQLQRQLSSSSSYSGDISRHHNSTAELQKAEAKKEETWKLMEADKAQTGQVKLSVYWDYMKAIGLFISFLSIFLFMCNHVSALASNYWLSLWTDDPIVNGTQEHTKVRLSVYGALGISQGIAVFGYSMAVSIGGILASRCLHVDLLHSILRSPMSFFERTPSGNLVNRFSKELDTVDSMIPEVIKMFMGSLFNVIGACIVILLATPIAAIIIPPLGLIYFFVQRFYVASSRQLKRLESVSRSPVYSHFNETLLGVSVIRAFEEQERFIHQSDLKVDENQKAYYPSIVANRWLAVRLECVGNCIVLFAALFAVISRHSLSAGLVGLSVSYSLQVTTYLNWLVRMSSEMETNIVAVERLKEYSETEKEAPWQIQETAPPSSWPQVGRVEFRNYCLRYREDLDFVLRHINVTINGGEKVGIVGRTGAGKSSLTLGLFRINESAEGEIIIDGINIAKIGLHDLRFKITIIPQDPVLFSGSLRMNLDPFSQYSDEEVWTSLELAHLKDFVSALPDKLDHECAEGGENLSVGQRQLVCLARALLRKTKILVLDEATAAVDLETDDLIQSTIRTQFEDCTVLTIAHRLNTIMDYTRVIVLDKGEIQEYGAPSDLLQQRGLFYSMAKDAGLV
Data set [7] is filed under the species Homo sapiens. As to conditions: 5 uM.
Description: Inhibition of P-gp (unknown origin) expressed in mouse NIH/3T3 cells assessed as reduction in rhodamine 123 efflux at 5 uM incubated for 30 mins by flow cytometric analysis relative to control
The species entered for data set [8] is Homo sapiens. As to the kind of experiment: Cytotoxicity against MRP1-expressing HEK293FlpIN cells assessed as reduction in cell viability at 10 to 20 uM after 72 hrs by MTT assay. The format is functional, cell-based.
The target of data set [9] is T2, Multidrug resistance-associated protein 1. As to the kind of experiment: Inhibition of MRP1 (unknown origin) expressed in HEK293FlpIN cells assessed as potentiation of vincristine-induced cytotoxicity by measuring decrease in cell growth at 10 to 20 uM after 72 hrs by MTT assay relative to control. The format is cell-based. Also on record: scale not given: the % may be the effect or the level left.

For data set [10] the target is unchanged. As to the kind of experiment: Inhibition of MRP1 (unknown origin) expressed in HEK293FlpIN cells assessed as reduction in calcein-AM efflux incubated for 30 mins by flow cytometric analysis. To be noted: for inhibition (INH): human, 0.5 h. The format is cell-based.
Data set [11] in a line: Cytotoxicity against HEK293FlpIN cells assessed as reduction in cell viability at 10 to 20 uM after 72 hrs by MTT assay. It counts as cell-based. As to conditions: human.
In data set [12] the test system is BHK-21. As to the kind of experiment: Cytotoxicity against MRP1-expressing BHK21 cells assessed as cell death after 72 hrs by MTT assay. It counts as functional, cell-based. As to conditions: Mesocricetus auratus, BHK-21, 72 h.
Data set [13] concerns BHK-21. As to the kind of experiment: Resistance ratio of EC50 for MRP1-expressing BHK21 cells to EC50 for wild type BHK21 cells. It counts as functional, Mesocricetus auratus.
The species entered for data set [14] is Homo sapiens. As to the kind of experiment: Inhibition of P-gp (unknown origin) expressed in mouse NIH/3T3 cells assessed as potentiation of paclitaxel-induced cytotoxicity by measuring decrease in cell viability at 10 to 20 uM after 72 hrs by MTT assay. The format is cell-based.
For data set [15], the species on record is Homo sapiens. As to the kind of experiment: Inhibition of P-gp (unknown origin) expressed in mouse NIH/3T3 cells assessed as reduction in rhodamine 123 efflux at 1 uM incubated for 30 mins by flow cytometric analysis relative to control. The format is cell-based.
The species named for data set [16] is Homo sapiens. Put plainly: Inhibition of P-gp (unknown origin) expressed in mouse NIH/3T3 cells assessed as reduction in rhodamine 123 efflux at 10 uM incubated for 30 mins by flow cytometric analysis relative to control. It counts as cell-based.
For data set [17], the species on record is Homo sapiens. As to the kind of experiment: Inhibition of P-gp (unknown origin) expressed in mouse NIH/3T3 cells assessed as potentiation of paclitaxel-induced cytotoxicity by measuring decrease in cell viability at 10 uM after 72 hrs by MTT assay. It counts as cell-based.

Chain of MRP1 (P33527 whole entry): as above

A word on the inhibition: it is the relative decrease from the control value, in per cent. Turning to `CC[C@@H]1CN(C)[C@H]2Cc3c([nH]c4ccccc34)/C(=N/N=C\C=C\c3ccccc3)C[C@H]1[C@H]2C(=O)OC`, the inhibition at 0.5 h, 20 µM on BCRP (ABCG2) is -2%; on MRP1 it was 10%. In addition, the Activity result in the data set with BHK-21 [1] and with NIH3T3 [4] was “Non-Toxic” in each case. For the same compound, the “growth inhibition (GI)” value in the data set with NIH3T3 [2] was “Active”. The inhibition in data set [3] was found to be 26.7%. In the data set with BHK-21 [5], the inhibition of growth at 20 µM is greater than 90%. For the same compound, the “inhibition (INH)” value in data set [6] is on record as “Not Active”.
Regarding `COc1cc2c(cc1OC)CN(CCc1ccc(NC(=O)c3cccc4c(=O)c5cccc(OC)c5[nH]c34)cc1)CC2`, the inhibition in the data set filed under Homo sapiens [7] worked out at 100%.
Broadly, the IC50 is the concentration that inhibits the measured activity by half. In the case of `CC[C@@H]1CN(C)[C@H]2Cc3c([nH]c4ccccc34)/C(=N/N=C\c3ccc(O)c(OC)c3)C[C@H]1[C@H]2C(=O)OC`, the inhibition result in the data set filed under Homo sapiens [8] is “inactive”. Moreover, the values for the inhibition at 0.5 h, 20 µM on BCRP (ABCG2) and at MRP1 were 9% and 87.3%, respectively. The Activity was 60% in data set [9], “Non-Toxic” in the data set with BHK-21 [1], “Non-Toxic” in the data set with NIH3T3 [4] and “Non-Toxic” in data set [11]. Also, the “growth inhibition (GI)” value in the data set with NIH3T3 [2] and in the data set with BHK-21 [5] was “Active” each time. In addition, in [10], the IC50 was greater than 1 µM. Further, the results for the “inhibition (INH)” value in data set [10] and in data set [6] were “Dose-dependent effect” and “Not Active”, respectively. The inhibition in [3] worked out at 24.3%.
On to `CC[C@H]1CN(C)[C@H]2Cc3c([nH]c4ccccc34)/C(=N/N=C\c3ccc(O)c(OC)c3)C[C@H]1[C@H]2C(=O)OC`, for which the inhibition at 0.5 h, 20 µM on BCRP (ABCG2) is 10.5%; on MRP1, 80.7%. In addition, the Activity result with BHK-21 [1] and in the data set on NIH3T3 [4] was “Non-Toxic” throughout. For the same compound, the “growth inhibition (GI)” value in the data set on NIH3T3 [2] was “Active”. The IC50 in [10] is greater than 1 µM. The “inhibition (INH)” value in [10] is reported as “Dose-dependent effect”. Also, in data set [3], the inhibition turned out to be 38.6%. For the same compound, the inhibition of growth at 20 µM in the data set with BHK-21 [5] was in the range of 90 to 98%.
A word on the EC50: it is the concentration that produces a half-maximal response. As for `CC[C@@H]1CN(C)[C@H]2Cc3c([nH]c4ccccc34)/C(=N/N=C\c3cccc(Br)c3)C[C@H]1[C@H]2C(=O)OC`, in the data set on BHK-21 [12], the EC50 turned out to be 16.5 µM. Further, the inhibition at 0.5 h, 20 µM at BCRP (ABCG2) is -2.4%; at MRP1, 12%. Besides, the Activity result in the data set with BHK-21 [1] and with NIH3T3 [4] was “Non-Toxic” in each case. Further, the “Ratio EC50” value in the data set with BHK-21 [13] was determined as 0.73. Besides, the “growth inhibition (GI)” value in the data set on NIH3T3 [2] is “Active”. Also, the inhibition in data set [3] was determined as 11.4%. For the same compound, in the data set on BHK-21 [5], the inhibition of growth at 20 µM was greater than 90%. For the same compound, the “inhibition (INH)” value in data set [6] is recorded as “Not Active”.
For the compound `CC[C@H]1CN(C)[C@H]2Cc3c([nH]c4ccccc34)/C(=N/N=C\c3ccc(C)cc3)C[C@H]1[C@H]2C(=O)OC`, the inhibition at 0.5 h, 20 µM is 2.4% on BCRP (ABCG2) and 20.4% at MRP1. Further, the Activity result with BHK-21 [1] and in the data set with NIH3T3 [4] was “Non-Toxic” in each case. In addition, in the data set filed under Homo sapiens [14], the inhibition result was “Active”. In addition, the “growth inhibition (GI)” value in the data set with NIH3T3 [2] is “Active”. Also, the inhibition in data set [3] stood at 86.1%. Besides, the inhibition of growth at 20 µM with BHK-21 [5] is 90 to 98%.
On to `CC[C@H]1CN(C)[C@H]2Cc3c([nH]c4ccccc34)/C(=N/N=C\c3c[nH]c4ccccc34)C[C@H]1[C@H]2C(=O)OC`, for which the inhibition at 0.5 h, 20 µM at BCRP (ABCG2) was 4.9%; at MRP1 it was 70.5%. Also, the values for the inhibition (in the data set filed under Homo sapiens [15]; in the data set listed under Homo sapiens [16]; in data set [3]) were 38%, 73% and 116%, respectively. Also, the Activity result in the data set with BHK-21 [1] and in the data set on NIH3T3 [4] was “Non-Toxic” throughout. The “growth inhibition (GI)” value in the data set with NIH3T3 [2] is “Active”. In the data set with BHK-21 [5], the inhibition of growth at 20 µM fell in the range of 90 to 98%.
As for `CC[C@@H]1CN(C)[C@H]2Cc3c([nH]c4ccccc34)/C(=N/N=C\c3ccc(C)cc3)C[C@H]1[C@H]2C(=O)OC`, the inhibition at 0.5 h, 20 µM on BCRP (ABCG2) is 1.7%; at MRP1, 8.8%. In the data set filed under Homo sapiens [17], the inhibition result is “Active”. In addition, the Activity result in the data set with BHK-21 [1] and in the data set with NIH3T3 [4] was “Non-Toxic” each time. In the data set with NIH3T3 [2], the “growth inhibition (GI)” value was “Active”. For the same compound, in data set [3], the inhibition was determined as 73.8%. Further, the inhibition of growth at 20 µM in the data set with BHK-21 [5] lay in the range of 90 to 98%.
As to `CC[C@@H]1CN(C)[C@H]2Cc3c([nH]c4ccccc34)/C(=N/N=C\c3c[nH]c4ccccc34)C[C@H]1[C@H]2C(=O)OC`, the inhibition at 0.5 h, 20 µM on BCRP (ABCG2) was 4.2%; on MRP1, 50.2%. For the same compound, the inhibition in the data set filed under Homo sapiens [15] was 18%; in the data set listed under Homo sapiens [16], 70%; in [3] it was 102%. For the same compound, the Activity entry in the data set on BHK-21 [1] and with NIH3T3 [4] was “Non-Toxic” each time. In the data set with NIH3T3 [2], the “growth inhibition (GI)” value was “Active”. For the same compound, the inhibition of growth at 20 µM in the data set with BHK-21 [5] was 90 to 98%.
